What is called IC50 is the point on the concentration scale where inhibition reaches its midpoint.

The text below walks through data of patent US12410187B2, “Fused tricyclic compounds useful as anticancer agents” (ASTRAZENECA AB, priority 2019, dated 2025).

One series addresses T1, KRasG12C (Homo sapiens, UniProt P01116, G12C).
T1 construct: biotin (biotinylated); made in house
Kind of series: KRasG12C functional assay (HTRF/FRET nucleotide exchange and Raf RBD binding). It counts as biochemical. As to conditions: samples incubated for 4 hrs, FRET readout, single experiment or average of two or more. As for the experimental part:
All enzyme and substrate solutions were prepared in assay buffer containing 20 mM HEPES (pH 7.5), 5 mM MgCl2, 150 mM NaCl, and 0.01% Tween 20. […] In a separate mix 20 nM GST-Raf Ras binding domain (GST-Raf RBD, purified in house) and 4 μg/ml anti-GST XL665 antibody (Cisbio) was prepared in assay buffer containing 50 mM Potassium Fluoride and 0.05 mg/ml BSA and equilibrated for 4 hours before adding 0.6 μM Guanosine 5′-[γ-thio]triphosphate (GTPγS, Sigma) and 0.08 μM SOS (purified in house). 5 μl of the GST-RAF RBD mix was then dispensed into each well of the assay plate. […] This is detected simultaneously via the specific binding interaction between active GTPγS KRas^G12C with GST-Raf RBD which brings the europium and XL665 into close proximity enabling an increased FRET signal to be detected on a Pherastar (BMG) plate reader equipped with the HTRF filter module. […] IC50 values were calculated from normalised dose-response response FRET data curve fitted in Genedata screener (Basel, Switzerland).
(In TR-FRET formats the signal depends on donor and acceptor labels being close together.)

For the next series, the system named is MDR1 (Pgp) and BCRP. The experiment in a line: Blood brain barrier penetrant assessment: efflux ratio in MDCK_MDR1_BCRP cells. It is filed as in vitro ADME. The conditions noted are these: human, MDCK cells doubly transfected with MDR1 (Pgp) and BCRP, ratio of 2 or less = potential for good BBB penetration, read-out: Hu MDCK-MDR1-BCRP (0.1 uM) Mean Efflux Ratio. Here is the method:
In order to evaluate blood brain barrier (BBB) penetrant properties the efflux properties of compounds according to the specification was measured in cells transfected with the major efflux pumps expressed in the endothelial cells of the BBB. The assessment of efflux properties was performed using Madin-Darby Canine Kidney (MDCK) cells doubly transfected with MDR1 (Pgp) and BCRP. The transfected cell line, MDCK_MDR1_BCRP, thus expresses the two main efflux pumps that actively serve to exclude transit of compounds across the BBB and the efflux ration from these cell can be measured as described in the literature (Durant et al, Sci. Adv. 2018; eeat:1719). A compound that has an efflux ratio of 2 or less as measured by this technique is identified as having the potential for good BBB penetrant properties (Colclough et al, Drug Disc. Today 2019; 24(5), 1067-73).

Where [1] appears, read: GDP loaded biotinylated KRasG12C, read-out: KRasG12C functional assay IC50.
Setting [2] is: KRasG12C functional assay IC50, GDP loaded biotinylated KRasG12C.

Each structure is given as a SMILES string. Where two headings read alike, the source gives them in different places.

T1 sequence (P01116 1-188 isoform P01116-2 G12C): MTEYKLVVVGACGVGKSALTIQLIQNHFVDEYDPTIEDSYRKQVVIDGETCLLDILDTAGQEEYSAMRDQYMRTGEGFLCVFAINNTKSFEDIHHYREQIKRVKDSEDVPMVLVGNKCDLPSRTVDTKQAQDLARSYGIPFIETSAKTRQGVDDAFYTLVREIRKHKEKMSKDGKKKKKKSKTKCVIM

Regarding `C#Cc1cc2c(c(C)c1-c1c(O)cccc1Cl)OC[C@H]1CN(C(=O)C=C)CCN1C2` (single isomer, unassigned) [Example 90], at KRasG12C (setting [1]), the IC50 amounted to 54 nM. In addition, the efflux ratio at 0.1 uM in the series on MDR1 (Pgp) and BCRP worked out at 0.6.

In the case of `C=CC(=O)N1CCN2Cc3c(F)c(F)c(-c4c(O)cccc4Cl)c(Cl)c3OC[C@H]2C1` (single isomer, unassigned) [Example 92], on KRasG12C (setting [1]), the IC50 is 53 nM. Moreover, the efflux ratio at 0.1 uM in the series on MDR1 (Pgp) and BCRP stood at 0.7.

For the compound `C=CC(=O)N1CCN2Cc3cc(Cl)c(-c4c(O)cccc4F)c(Cl)c3OC[C@H]2C1` (single isomer, unassigned) [Example 27], on KRasG12C (setting [1]), the IC50 was found to be 24 nM. The efflux ratio at 0.1 uM in the series with MDR1 (Pgp) and BCRP is 0.8.

As for `C#Cc1c(F)c2c(c(F)c1-c1c(O)cccc1Cl)OC[C@H]1CN(C(=O)C=C)CCN1C2` (single isomer, unassigned) [Example 95], the IC50 at KRasG12C (setting [1]) stood at 19 nM. Further, in the series with MDR1 (Pgp) and BCRP, the efflux ratio at 0.1 uM was 0.9.

Compound `C=CC(=O)N1CCN2Cc3cc(Cl)c(-c4c(O)cccc4Cl)c(F)c3OC[C@H]2C1` (single isomer, unassigned) [Example 84] came in with an IC50 on KRasG12C (setting [2]) of 25 nM. In the series with MDR1 (Pgp) and BCRP, the efflux ratio at 0.1 uM turned out to be 0.6.

`C#Cc1c2c(cc(F)c1-c1c(C)cccc1O)CN1CCN(C(=O)C=C)C[C@@H]1CO2` (single isomer, unassigned) [Example 65]: the IC50 at KRasG12C (setting [1]) came to 182 nM. In addition, the efflux ratio at 0.1 uM with MDR1 (Pgp) and BCRP is 1.4.

Take `C=CC(=O)N1CCN2Cc3cc(F)c(-c4c(O)cccc4Br)c(F)c3OC[C@H]2C1` (single isomer, unassigned) [Example 59]: the IC50 at KRasG12C (setting [1]) amounted to 32 nM. Also, the efflux ratio at 0.1 uM with MDR1 (Pgp) and BCRP came out at 0.8.

As to `C=CC(=O)N1CCN2Cc3cc(C#CC)c(-c4c(O)cccc4Cl)c(Cl)c3OC[C@H]2C1` (single isomer, unassigned) [Example 109], the IC50 at KRasG12C (setting [1]) came out at 14 nM. Moreover, the efflux ratio at 0.1 uM in the series on MDR1 (Pgp) and BCRP came out at 0.9.

At KRasG12C (setting [2]), `C=CC(=O)N1CCN2Cc3ccc(-c4c(C)ccc5[nH]ncc45)c(Cl)c3OC[C@H]2C1` (single isomer, unassigned) [Example 9] had an IC50 of 26000 nM.

Regarding `C=CC(=O)N1CCN2Cc3c(c(Cl)c(-c4c(O)cccc4Cl)c4ncn(C)c34)OC[C@H]2C1` (single isomer, unassigned) [Example 82], the IC50 on KRasG12C (setting [1]) amounted to 61 nM.

For `C=CC(=O)N1CCN2Cc3c(c(Cl)c(-c4c(O)cccc4F)[nH]c3=O)OC[C@H]2C1` [Example 69, (6aR)-4-Chloro-3-(2-fluoro-6-hydroxyphenyl)-8-(prop-2-enoyl)-2,6,6a,7,8,9,10,12-octahydro-1H-pyrazino[2,1-c]pyrido[3,4-f][1,4]oxazepin-1-one], the IC50 at KRasG12C (setting [1]) stood at 618 nM.

As to `C=CC(=O)N1CCN2Cc3cc(OCCOC)c(-c4c(O)cccc4Cl)c(Cl)c3OC[C@H]2C1` (single isomer, unassigned) [Example 106], the IC50 on KRasG12C (setting [1]) is 43 nM.

For `C#Cc1c2c(cc(Cl)c1-c1c(C)cccc1O)CN1CCN(C(=O)C=C)C[C@@H]1CO2` (single isomer, unassigned) [Example 63], the IC50 on KRasG12C (setting [1]) was found to be 120 nM.

On to `C=CC(=O)N1CCN2C(=O)c3cc(C)c(-c4c(O)cccc4F)c(Cl)c3OC[C@H]2C1` (single isomer, unassigned) [Example 25], for which the IC50 on KRasG12C (setting [1]) was 68 nM.

On to `C=CC(=O)N1CCN2C(=O)c3ccc(-c4c(C)ccc5[nH]ncc45)c(Cl)c3N(C)C[C@H]2C1` (single isomer, unassigned) [Example 37], for which, on KRasG12C (setting [1]), the IC50 worked out at 273 nM.

Take `C=CC(=O)N1CCN2C(=O)c3c(O)cc(-c4c(O)cccc4F)c(Cl)c3OC[C@H]2C1` [Example 6, (12aR)-10-chloro-9-(2-fluoro-6-hydroxyphenyl)-7-hydroxy-2-(prop-2-enoyl)-1,2,3,4,12,12a-hexahydro-6H-pyrazino[2,1-c][1,4]benzoxazepin-6-one]: at KRasG12C (setting [1]), the IC50 amounted to 103 nM.

In the case of `C#Cc1nc(-c2c(O)cccc2Cl)c(Cl)c2c1CN1CCN(C(=O)C=C)C[C@@H]1CO2` (single isomer, unassigned) [Example 120], the IC50 at KRasG12C (setting [1]) was found to be 51 nM.

With `C=CC(=O)N1CCN2Cc3cc(F)c(-c4c(C)ccc5cc[nH]c(=O)c45)c(Cl)c3OC[C@H]2C1` (single isomer, unassigned) [Example 28], the IC50 on KRasG12C (setting [1]) worked out at 17000 nM.

Take `C=CC(=O)N1CCN2Cc3cc(F)c(-c4c(O)cccc4C(F)F)c(F)c3OC[C@H]2C1` (single isomer, unassigned) [Example 52]: at KRasG12C (setting [1]), the IC50 is > 100000 nM.

As for `C=CC(=O)N1CCN2Cc3cc(F)c(-c4c(O)cccc4C(F)(F)F)c(F)c3OC[C@H]2C1` (single isomer, unassigned) [Example 48], the IC50 at KRasG12C (setting [1]) amounted to 42700 nM.

As to `C=CC(=O)N1CCN2Cc3cc(F)c(-c4c(C)cccc4O)c(F)c3OC[C@H]2C1` (single isomer, unassigned) [Example 44], the IC50 on KRasG12C (setting [2]) is > 100000 nM.

Turning to `C=CC(=O)N1CCN2Cc3cc(COC)c(-c4c(O)cccc4Cl)c(Cl)c3OC[C@H]2C1` [Example 114, 1-[(12aR)-10-Chloro-9-(2-chloro-6-hydroxyphenyl)-8-(methoxymethyl)-3,4,12,12a-tetrahydro-6H-pyrazino[2,1-c][1,4]benzoxazepin-2(1H)-yl]prop-2-en-1-one], the IC50 on KRasG12C (setting [1]) came out at 83 nM.

For `C=CC(=O)N1CCN2C(=O)c3ccc(-c4c(C)ccc5[nH]ncc45)c(Cl)c3N(C)C[C@H]2C1` (single isomer, unassigned) [Example 36], the IC50 on KRasG12C (setting [1]) was determined as 98200 nM.

For `C=CC(=O)N1CCN2Cc3cc(F)c(-c4c(F)cccc4CO)c(F)c3OC[C@H]2C1` (single isomer, unassigned) [Example 46], at KRasG12C (setting [1]), the IC50 stood at 99500 nM.

Turning to `C=CC(=O)N1CCN2Cc3cc(F)c(-c4c(C)ccc5[nH]cnc45)c(Cl)c3OC[C@H]2C1` (single isomer, unassigned) [Example 19], the IC50 on KRasG12C (setting [1]) was determined as 146 nM.

As to `C=CC(=O)N1CCN2Cc3cc(OCc4ccncc4)c(-c4c(O)cccc4Cl)c(F)c3OC[C@H]2C1` (single isomer, unassigned) [Example 104], on KRasG12C (setting [1]), the IC50 came out at 27 nM.

For the compound `C=CC(=O)N1CCN2Cc3cc(OC(F)F)c(-c4c(O)cccc4Cl)c(F)c3OC[C@H]2C1` (single isomer, unassigned) [Example 94], on KRasG12C (setting [2]), the IC50 turned out to be 14 nM.

For `C=CC(=O)N1CCN2Cc3cc(Cl)c(-c4c(O)cccc4F)c(Cl)c3OC[C@H]2C1` (single isomer, unassigned) [Example 26], the IC50 on KRasG12C (setting [1]) came to 1000 nM.

In the case of `C=CC(=O)N1CCN2Cc3c(OC)cc(-c4c(O)cccc4F)c(Cl)c3OC[C@H]2C1` [Example 5, 1-[(12aR)-10-Chloro-9-(2-fluoro-6-hydroxyphenyl)-7-methoxy-3,4,12,12a-tetrahydro-6H-pyrazino[2,1-c][1,4]benzoxazepin-2(1H)-yl]prop-2-en-1-one], at KRasG12C (setting [1]), the IC50 turned out to be 157 nM.

For the compound `C=CC(=O)N1CCN2Cc3c(O)c(Cl)c(-c4c(O)cccc4F)c(Cl)c3OC[C@H]2C1` (single isomer, unassigned) [Example 14], the IC50 on KRasG12C (setting [1]) came out at 8190 nM.

Regarding `C=CC(=O)N1CCN2Cc3cc(Cl)c(-c4c(C)cccc4O)c(F)c3OC[C@H]2C1` (single isomer, unassigned) [Example 60], at KRasG12C (setting [1]), the IC50 worked out at 15900 nM.

In the case of `C=CC(=O)N1CCN2Cc3cc(F)c(-c4c(O)cccc4Cl)c(Cl)c3OC[C@H]2C1` (single isomer, unassigned) [Example 34], the IC50 at KRasG12C (setting [1]) was 64900 nM.

In turn, `C=CC(=O)N1CCN2C(=O)c3ccc(-c4c(C)ccc5[nH]ncc45)c(Cl)c3OC[C@H]2C1` (single isomer, unassigned) [Example 7] yielded an IC50 on KRasG12C (setting [2]) of 82000 nM.

Turning to `C=CC(=O)N1CCN2Cc3cc(OC)c(-c4c(O)cccc4F)c(Cl)c3OC[C@H]2C1` (single isomer, unassigned) [Example 30], the IC50 at KRasG12C (setting [1]) was 90500 nM.

Regarding `C=CC(=O)N1CCN2Cc3cc(F)c(-c4c(F)cccc4CO)c(F)c3OC[C@H]2C1` (single isomer, unassigned) [Example 47], the IC50 on KRasG12C (setting [1]) worked out at 1720 nM.

Regarding `C=CC(=O)N1CCN2Cc3cc(F)c(-c4c(O)cccc4Br)c(F)c3OC[C@H]2C1` (single isomer, unassigned) [Example 58], the IC50 at KRasG12C (setting [1]) was 11800 nM.

In turn, `C=CC(=O)N1CCN2Cc3cc(C#N)c(-c4c(O)cccc4Cl)c(F)c3OC[C@H]2C1` (single isomer, unassigned) [Example 55] came in with an IC50 on KRasG12C (setting [2]) of 16 nM.

As to `C=CC(=O)N1CCN2Cc3cc(F)c(-c4c(O)ccc(F)c4F)c(Cl)c3OC[C@H]2C1` (single isomer, unassigned) [Example 39], the IC50 on KRasG12C (setting [1]) was 123 nM.
